Structures can show the parent of a compound that is named as a salt. Where two headings read alike, the source gives them in different places.
How the values were obtained:
CqDOP2 [1] = biological target: T1, CqDOP2 (Culex quinquefasciatus, UniProt A0A0B5H0X6); test: cell-based
Ae. aegypti larvae [2] = details: for LT50, Aa: at 400 μM
Human D1 = biological target: T2, Human D1 (Homo sapiens, UniProt P21728); test: Inhibition of dopamine-stimulated cAMP response (HTRF) in HEK293 cells expressing human D1; assay type: cell-based
T2 construct: expressed in transfected cells
T2 sequence (P21728 whole entry): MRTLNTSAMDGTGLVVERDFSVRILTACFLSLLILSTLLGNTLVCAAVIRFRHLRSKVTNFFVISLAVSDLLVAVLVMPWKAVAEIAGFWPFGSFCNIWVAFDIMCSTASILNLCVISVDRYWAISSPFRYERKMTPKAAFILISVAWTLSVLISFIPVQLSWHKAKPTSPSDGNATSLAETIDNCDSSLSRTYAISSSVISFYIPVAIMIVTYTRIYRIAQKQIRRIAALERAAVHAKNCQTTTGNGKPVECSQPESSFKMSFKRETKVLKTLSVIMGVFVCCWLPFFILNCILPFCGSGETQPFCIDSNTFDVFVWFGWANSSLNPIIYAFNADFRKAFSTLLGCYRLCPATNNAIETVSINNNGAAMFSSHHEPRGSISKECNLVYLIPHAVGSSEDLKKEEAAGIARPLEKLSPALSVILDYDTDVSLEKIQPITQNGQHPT

AaDOP2 [3] = biological target: T3, AaDOP2 (Aedes aegypti, UniProt H6D5H2); test: cell-based
T3 sequence (H6D5H2 1-476): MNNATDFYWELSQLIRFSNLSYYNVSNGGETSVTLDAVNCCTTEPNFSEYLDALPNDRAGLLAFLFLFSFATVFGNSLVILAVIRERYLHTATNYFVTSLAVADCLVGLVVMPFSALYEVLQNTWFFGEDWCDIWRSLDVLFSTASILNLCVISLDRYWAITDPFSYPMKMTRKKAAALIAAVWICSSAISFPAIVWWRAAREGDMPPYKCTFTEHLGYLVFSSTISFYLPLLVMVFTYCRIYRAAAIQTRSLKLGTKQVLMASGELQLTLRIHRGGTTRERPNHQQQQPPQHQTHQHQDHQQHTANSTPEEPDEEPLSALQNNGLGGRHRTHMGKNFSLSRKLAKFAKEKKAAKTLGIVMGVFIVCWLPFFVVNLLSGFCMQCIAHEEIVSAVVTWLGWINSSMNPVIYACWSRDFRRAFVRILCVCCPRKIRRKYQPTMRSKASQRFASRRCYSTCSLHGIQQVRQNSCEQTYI

[4] = tested on: C. quinquefasciatus larvae; test: whole plant or invertebrate; details: Culex quinquefasciatus, 72 h, read-out: LC50, Cq
[5] = tested on: C. quinquefasciatus larvae; details: for LT50, Cq: at 400 μM; for earliest time debilitated larvae observed after exposure, C. quinquefasciatus: 400 μM; for larval mortality, C. quinquefasciatus, within the first 24 h: 24 h post exposure (S3 Fig)
Ae. aegypti larvae [6] = test: whole plant or invertebrate; details: Aedes aegypti, 72 h, read-out: LC50, Aa
CqDOP2 [7] = biological target: T1, CqDOP2; test: HTRF cAMP accumulation assay, agonist response of CqDOP2 stably expressed in HEK293 cells; assay type: cell-based; details: for EC50 fold higher than that of dopamine, CqDOP2: cAMP response
AaDOP2 [8] = biological target: T3, AaDOP2; details: cAMP response
AaDOP2 [9] = biological target: T3, AaDOP2; test: cell-based; remark: listed apart in the source
AmDOP2 = details: ref [19]; cited from earlier work
CqDOP2 [10] = biological target: T1, CqDOP2; details: read-out: IC50 for inhibition of dopamine-stimulated cAMP response, CqDOP2; HEK293 cells; dopamine 3 μM; ±SEM
[11] = read-out: IC50 for inhibition of dopamine-stimulated cAMP response, Human D1

T1 sequence (A0A0B5H0X6 entry or part of it): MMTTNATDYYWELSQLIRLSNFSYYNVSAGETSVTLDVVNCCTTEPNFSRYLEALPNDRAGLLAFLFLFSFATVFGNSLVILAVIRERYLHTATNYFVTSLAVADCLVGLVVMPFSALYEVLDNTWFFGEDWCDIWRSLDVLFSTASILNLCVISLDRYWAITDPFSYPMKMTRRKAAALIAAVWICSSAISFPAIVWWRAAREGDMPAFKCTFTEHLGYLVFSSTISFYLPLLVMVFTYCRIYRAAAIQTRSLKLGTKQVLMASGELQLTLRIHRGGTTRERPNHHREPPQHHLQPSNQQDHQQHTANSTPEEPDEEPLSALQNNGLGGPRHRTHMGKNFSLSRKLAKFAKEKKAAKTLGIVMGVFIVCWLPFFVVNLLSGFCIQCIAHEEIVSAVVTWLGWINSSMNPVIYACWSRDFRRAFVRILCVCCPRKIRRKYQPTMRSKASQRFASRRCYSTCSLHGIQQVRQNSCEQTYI

Molecule | IC50 (CqDOP2 [1]) | LT50, Aa (Ae. aegypti larvae [2]; L3 larvae, ±SEM, n ≥ 3) | IC50 (AaDOP2 [3]) | LC50 [4] | LT50, Cq ([5]; L3 larvae, ±SEM, n ≥ 3) | LC50 (Ae. aegypti larvae [6]) | also measured
CN(C)CCC=C1c2ccccc2CCc2ccccc21 [Amitriptyline, amitriptyline hydrochloride] | 0.0033 ± 0.0004 µM | 47.8 ± 6.3 h | 0.0064 ± 0.002 µM | 165 ± 37 µM | 41.7 ± 2.1 h | 208 ± 137 µM | IC50 (Human D1): 0.69 ± 0.052 µM
CCNC(=O)N1CCN(CCCC(c2ccc(F)cc2)c2ccc(F)cc2)CC1 [Amperozide, amperozide hydrochloride] | 0.248 ± 0.042 µM | 46.6 ± 6.2 h | 0.469 ± 0.071 µM | 135 ± 35 µM | 25.4 ± 1.5 h | 161 ± 20 µM | IC50 (Human D1; [11]): 16.2 ± 4.77 µM
CN1CC2c3ccccc3Oc3ccc(Cl)cc3C2C1 (stereo not shown) [Asenapine, asenapine maleate] | 0.0008 ± 3e-05 µM | 36.4 ± 1.6 h | 0.0007 ± 0.0002 µM | 50 ± 10 µM | 24.2 ± 1.3 h | 102 ± 22 µM | larval mortality, Ae. aegypti, after 48 h (Ae. aegypti larvae [2]; in vivo): > 70%; IC50 (Human D1; [11]): 0.101 ± 0.002 µM
CN(C)CCCN1c2ccccc2Sc2ccc(Cl)cc21 [Chlorpromazine, chlorpromazine hydrochloride] | 0.0074 ± 0.002 µM | 26.1 ± 0.9 h | 0.019 ± 0.001 µM | 64 ± 9 µM | 16.7 ± 1.1 h | 88 ± 9 µM | larval mortality, Ae. aegypti, after 48 h (Ae. aegypti larvae [2]; 48 h post exposure (S4 Fig)): > 70%; earliest time debilitated larvae observed after exposure, C. quinquefasciatus [5]: 1 h; larval mortality, C. quinquefasciatus, within the first 24 h [5]: > 70%
CN(C)CC/C=C1/c2ccccc2Sc2ccc(Cl)cc21 [Chlorprothixene] |  | 22.2 ± 3.2 h |  | 41 ± 7 µM | 13.9 ± 2.0 h | 62 ± 9 µM | larval mortality, Ae. aegypti, after 48 h (Ae. aegypti larvae [2]; 48 h post exposure (S4 Fig)): > 70%; earliest time debilitated larvae observed after exposure, Ae. aegypti (Ae. aegypti larvae [2]; in vivo): 2 h; earliest time debilitated larvae observed after exposure, C. quinquefasciatus [5]: 1 h; larval mortality, C. quinquefasciatus, within the first 24 h [5]: > 70%
OCCN1CCN(CC/C=C2/c3ccccc3Sc3ccc(C(F)(F)F)cc32)CC1 [Cis-(Z)-flupenthixol, cis-(Z)-flupenthixol dihydrochloride] | 0.002 ± 0.0005 µM | 42.6 ± 2.9 h | 0.002 ± 0.0008 µM | 59 ± 22 µM | 35.2 ± 6.1 h | 83 ± 25 µM | 
CN(C)CCCN1c2ccccc2CCc2ccc(Cl)cc21 [Clomipramine] |  | 28.7 ± 3.1 h |  | 89 ± 19 µM | 27.3 ± 3.0 h | 88 ± 24 µM | 
CNC[C@H](O)c1ccc(O)c(O)c1 [Epinephrine, (-)-epinephrine bitartrate] |  |  |  |  |  |  | EC50 (CqDOP2 [7]): 80.8 ± 21 µM; EC50 fold higher than that of dopamine, CqDOP2 (CqDOP2 [7]): at least 10 fold; EC50 fold higher than that of dopamine, AaDOP2 (AaDOP2 [8]): at least 10 fold; EC50 (AaDOP2 [9]): 41.1 ± 10.5 µM
CSc1ccc2c(c1)C(N1CCN(C)CC1)Cc1ccccc1S2 (stereo not shown) [Methiothepin] |  | 30.6 ± 1.4 h |  |  | 15.7 ± 4.9 h |  | larval mortality, Ae. aegypti, after 48 h (Ae. aegypti larvae [2]; 48 h post exposure (S4 Fig)): > 70%; LC50 (Ae. aegypti larvae [2]; read-out: LC50, Aa, L3 larvae, 72 h exposure, ±SEM, n ≥ 3): 69 ± 12 µM; earliest time debilitated larvae observed after exposure, C. quinquefasciatus [5]: 1 h; larval mortality, C. quinquefasciatus, within the first 24 h [5]: > 70%; LC50 ([5]; read-out: LC50, Cq, L3 larvae, 72 h exposure, ±SEM, n ≥ 3): 44 ± 3 µM
CN1CCN2c3ccccc3Cc3ccccc3C2C1 (stereo not shown) [Mianserin] |  | 22.8 ± 1.3 h |  |  | 17.9 ± 3.0 h |  | 
NC[C@H](O)c1ccc(O)c(O)c1 [Norepinephrine, L (-)-norepinephrine bitartrate] |  |  |  |  |  |  | EC50 (CqDOP2 [7]): 52.2 ± 13.8 µM; EC50 fold higher than that of dopamine, CqDOP2 (CqDOP2 [7]): at least 10 fold; EC50 fold higher than that of dopamine, AaDOP2 (AaDOP2 [8]): at least 10 fold; fold more agonist required than dopamine, AmDOP2 (AmDOP2): approximately 25 fold; EC50 (AaDOP2 [9]): 30.3 ± 7.5 µM
CN1CCc2cc(Cl)c(O)cc2[C@@H](c2ccccc2)C1 [SCH23390, SCH23390 hydrochloride] | 0.745 ± 0.062 µM |  | 0.709 ± 0.187 µM |  |  |  | 
(±) butaclamol hydrochloride [(±)-Butaclamol] |  |  |  |  |  |  | IC50 (CqDOP2 [10]): 0.172 ± 0.015 µM
